# According to ChEMBL document CHEMBL3885861, “Open TG-GATES”:
# Organism: Rattus norvegicus
# Assay: Open TG-GATES - Regimen: Daily Repeat
# Assay type: toxicity, organism-based, Sprague-Dawley
# Parameters: regimen Daily Repeat, gender Male, age 6 weeks
# Conditions: in vivo, po, 150 mg/kg, route gavage, dose level Middle; for APTT / Bas / Eos / Fbg / Hb / Ht / Lym / MCH / MCHC / MCV / Mono / Neu / PT / Plat / RBC / Ret / WBC: tissue Blood
# [1] = 72 h, tissue Kidney, time 3 day
# [2] = 72 h, tissue Plasma, time 3 day
smiles,measurement,setting,value
CC(=O)Oc1cc(C(C)C)c(OCCN(C)C)cc1C [MOXISYLYTE],TERMINAL_BW,"72 h, time 3 day",223.4 g
same,APTT,"72 h, time 3 day",20.6 s
same,Bas,"72 h, time 3 day",0%
same,Eos,"72 h, time 3 day",1%
same,Fbg,"72 h, time 3 day",313 mg/dL
same,Hb,"72 h, time 3 day",14.1 g/dL
same,Ht,"72 h, time 3 day",40.5%
same,Lym,"72 h, time 3 day",78%
same,MCH,"72 h, time 3 day",21.3 pg
same,MCHC,"72 h, time 3 day",34.8%
same,MCV,"72 h, time 3 day",61.2 fL
same,Mono,"72 h, time 3 day",2.4%
same,Neu,"72 h, time 3 day",17.6%
same,PT,"72 h, time 3 day",16.2 s
same,Plat,"72 h, time 3 day",113.1 x10_4/uL
same,RBC,"72 h, time 3 day",663.6 x10_4/ul
same,Ret,"72 h, time 3 day",6.3%
same,WBC,"72 h, time 3 day",91.7 x10_2/uL
same,KIDNEY_L,[1],1 g
same,KIDNEY_R,[1],1 g
same,KIDNEY_TOTAL,[1],2 g
same,LIVER,"72 h, tissue Liver, time 3 day",9.7 g
same,A/G,[2],1.3
same,ALP,[2],1491.8 IU/L
same,ALT,[2],42.6 IU/L
same,AST,[2],75.6 IU/L
same,BUN,[2],16.4 mg/dL
same,CRE,[2],0.1 mg/dL
same,Ca,[2],10.8 mg/dL
same,Cl,[2],106.6 meq/L
same,DBIL,[2],0.01 mg/dL
same,GLC,[2],176.8 mg/dL
same,IP,[2],7.4 mg/dL
same,K,[2],4.2 meq/L
same,LDH,[2],242.8 IU/L
same,Na,[2],142.6 meq/L
same,PL,[2],159.8 mg/dL
same,RALB,[2],3.3 g/dL
same,TBIL,[2],0.008 mg/dL
same,TC,[2],74.4 mg/dL
same,TG,[2],140.6 mg/dL
same,TP,[2],5.8 g/dL
same,gamma-GTP,[2],1 IU/L
same,TERMINAL_BW,"[…], time 7 day",265.4 g
same,TERMINAL_BW,"[…], time 14 day",312.1 g
same,TERMINAL_BW,"[…], time 28 day",361.5 g
same,APTT,"[…], time 7 day",22.3 s
same,Bas,"[…], time 7 day",0%
same,Eos,"[…], time 7 day",0.6%
same,Fbg,"[…], time 7 day",318.2 mg/dL
same,Hb,"[…], time 7 day",13.4 g/dL
same,Ht,"[…], time 7 day",38.8%
same,Lym,"[…], time 7 day",81.4%
same,MCH,"[…], time 7 day",21.1 pg
same,MCHC,"[…], time 7 day",34.6%
same,MCV,"[…], time 7 day",61.2 fL
same,Mono,"[…], time 7 day",2.2%
same,Neu,"[…], time 7 day",15.2%
same,PT,"[…], time 7 day",15.3 s
same,Plat,"[…], time 7 day",113.7 x10_4/uL
same,RBC,"[…], time 7 day",633.2 x10_4/ul
same,Ret,"[…], time 7 day",6.1%
same,WBC,"[…], time 7 day",110.8 x10_2/uL
same,APTT,"[…], time 14 day",21.8 s
same,Bas,"[…], time 14 day",0%
same,Eos,"[…], time 14 day",1.2%
same,Fbg,"[…], time 14 day",310.8 mg/dL
same,Hb,"[…], time 14 day",14.5 g/dL
same,Ht,"[…], time 14 day",40%
same,Lym,"[…], time 14 day",76.4%
same,MCH,"[…], time 14 day",20.9 pg
same,MCHC,"[…], time 14 day",36.3%
same,MCV,"[…], time 14 day",57.8 fL
same,Mono,"[…], time 14 day",2.6%
same,Neu,"[…], time 14 day",19%
same,PT,"[…], time 14 day",15.9 s
same,Plat,"[…], time 14 day",117.3 x10_4/uL
same,RBC,"[…], time 14 day",692.8 x10_4/ul
same,Ret,"[…], time 14 day",4.9%
same,WBC,"[…], time 14 day",125.2 x10_2/uL
same,APTT,"[…], time 28 day",22.5 s
same,Bas,"[…], time 28 day",0%
same,Eos,"[…], time 28 day",1%
same,Fbg,"[…], time 28 day",323.6 mg/dL
same,Hb,"[…], time 28 day",15.1 g/dL
same,Ht,"[…], time 28 day",42.5%
